A word on the LD50: it is the dose expected to kill half of the subjects tested. A high value points to a less toxic substance. As a reminder, the ED50 is the dose that gives a 50% effect, or the effect in half of the subjects.

Structures can show the parent of a compound that is named as a salt.

This is an account of results in patent US4912116A, “Propiophenone derivatives for treatment of pollakiuria (frequency urination)” (Hokuriku Pharmaceutical Co., Ltd., priority 1986, dated 1990).

Data set [1] concerns micturition reflex (rhythmic bladder contractions). Briefly: Inhibition of micturition reflex (rhythmic bladder contractions) in anesthetized rats. Type of data set: in vivo, male wister rats. The conditions noted are these: for Disappearance time (of bladder contractions): i.v., 3 rats, mean ± S.E.; for ED (3 min disappearance of contractions): iv, read-out: ED3 (dose at which rhythmic bladder contractions disappeared in three (3) minutes). As to the method: (§1) statistical analysis: Each data of Experiment 1-6 represents the mean±S.E. statistical analysis of the data was performed using student's t-test.
According to the method described by Morikawa et al. (Folia phamacol. japon.: 88,355 (1986), male wister rats weighing about 300 g (in case of intraduodenal administration, fasted 18-20 hours) were anesthetized with urethane (500 mg/kg, i.p.) and alpha-chloralose (50 mg/kg, i.p.), and fixed on their back.
Then, through a midline incision of the abdomen, the urinary bladder was exposed, provided with a small incision, and a balloon (capacity about 1 ml) was inserted into the bladder dome.
The balloon was connected to a pressure transducer and variations of inside pressure were recorded on a recorder.
Micturition reflex was elicited by elevating balloon pressure 10-20 cm H2 O.
In case of intravenous administration, the drug was administrated through a cannula inserted into the left jugular vein and, in case of intraduodenum administration, the drug was administrated through a cannula into the duodenum from outside the stomach.
In case of intravenous administration, the drug was evaluated by the dissappearance time of bladder contractions caused by micturition reflex.
In case of intraduodenal administration, the sum total of amplitude of bladder contractions caused by the micturition reflex was calculated during each five minutes at 5 min. before and 15, 30, 45, and 60 min. after the administration.
Then, the maximum inhibition rate was determined from one of the above judgment times compared with that of before the administration, and the dose which inhibited 50 percent of the sum total of amplitude of bladder contractions during five minutes (ED 50 value), was calculated from the graph.

Another data set is described as follows: in vivo. The conditions noted are these: mouse, oral, mortality for one week, Probit method. As to the method:
Five to ten male ddY mice aged 4-5 weeks were used for each determination.
The test drug (5-8 dose levels) was orally administrated, and the LD50 value was calculated by Probit method from the mortality for one week after administration.

Data set [2] concerns cystometrogram (time to micturition). In words: Effects on the cystometrogram (Dog). The conditions noted are these: i.v., dogs, mean ± S.E., saline 6.0 ± 13.8. The class given is in vivo, Mongrel adult dogs. How it is done:
as §1
Mongrel adult dogs weighing about 10 kg were anesthetized with thiopental (20 mg/kg, i.v.) and immobilized with gallamine (2 mg/kg, i.v.), and fixed on their back.
In the experiment, infusion of pentobarbital (3 mg/kg/hr, i.v.) and gallamine (3 mg/kg i.v.) were continuted, and artifical respiration was performed (20 times/min, 20 ml air/kg).
After midline incision of the abdomen, the ureters were ligated and polyethylene tubes were inserted into the kidney side and the urinary bladder side. Urine was led out of the body from the kidney side, and warm saline was infused using a continuous infusion pump from the urinary bladder side.
Then, a catheter was inserted into the bladder dome and connected to a pressure transducer. Intravesical pressure was recorded on a recorder.
The infusion rate of saline was changed (6-35 ml/min) so as to induce the time to micturition from the saline infusion (time to micturition) at about five minutes.
The drug was administered (through a cannula inserted into the right femoral vein) at the second minute before the last time to micturition, and the delayed time of micturition was evaluated.

Data set [3] shares this test system. In words: Effects on the cystometrogram (Cat). Type of data set: in vivo, Mongrel adult cats. The conditions noted are these: cats. As to the method:
as §1
Mongrel adult cats weighing about 3 kg (in case of intraduodenal administration, fasted 24 hours) were anesthetized with urethane (500 mg/kg, i.p.) and alpha-chloralose (50 mg/kg, i.p.) and fixed on their back.
After midline incision of the abdomen, the ureters were ligated and polyethylene tubes were inserted into the kidney side and urinary bladder side, urine was led out of the body from the kidney side, and warm saline was infused using a continuous infusion pump from the urinary bladder side.
Then, a catheter was inserted into the bladder dome and connected to a pressure transducer Intravesical pressure was recorded on a recorder.
The infusion rate of saline was changed (0.7-6.6 ml/min) so as to induce the time to micturition from saline infusion at about five minutes.
Each of delayed time of micturition was evaluated. In case of intravenous administration, the drug was administered through a cannula inserted into the right femoral vein at 30 seconds before saline infusion.
In case of intraduodenal administration, the drug was administrated through a tube inserted into the duodenum by way of mouth at the time of saline infusion, and the time to micturition was measured at 15 min. intervals until 90 min.

Regarding `CC(CN1CCCC1)C(=O)c1ccc(C2CCCCC2)cc1` (stereo not shown) [Compound 2], the “Disappearance time (of bladder contractions)” value (“Disappearance time” for short) in data set [1] (1 mg/kg) is recorded as 1.0 ± 1.0 min; in data set [1] (2 mg/kg) it was 2.5 ± 1.3 min; in data set [1] (4 mg/kg), 6.3 ± 0.8 min. The ED (3 min disappearance of contractions) in data set [1] (Rattus norvegicus) is 2.2 mg/kg. Moreover, the LD50 at 168 h in “in vivo” was determined as 587 mg/kg.
As to `CCc1ccc(C(=O)C(C)CN2CCCCC2)cc1` (stereo not shown) [Compound 3], the “Disappearance time” value in data set [1] (1 mg/kg) was found to be 0.4 ± 0.4 min; in data set [1] (2 mg/kg) it was 5.3 ± 2.6 min; in data set [1] (4 mg/kg), 12.0 ± 1.2 min. Besides, the ED (3 min disappearance of contractions) in data set [1] (Rattus norvegicus) is 1.4 mg/kg.
Consider `Cc1ccc(C(=O)C(C)CN2CCCCC2)cc1` (stereo not shown) [Compound 4], for which the “Disappearance time” value is listed as 1.0 ± 0.7 min in data set [1] (1 mg/kg), 2.3 ± 0.5 min in data set [1] (2 mg/kg) and 4.9 ± 1.9 min in data set [1] (4 mg/kg). In addition, the ED (3 min disappearance of contractions) in data set [1] (Rattus norvegicus) amounted to 2.4 mg/kg. The compound also showed an LD50 at 168 h in the data set “in vivo” of 450 mg/kg.
As to `COc1ccc(C(=O)C(C)CN2CCCC2)c(C)c1C` (stereo not shown) [Compound 5], the results for the “Disappearance time” value in data set [1] (0.25 mg/kg) and in data set [1] (1 mg/kg) were 3.0 ± 0.4 min and 6.3 ± 1.4 min, respectively. Also, the ED (3 min disappearance of contractions) in data set [1] (Rattus norvegicus) is 0.25 mg/kg.
With `CN1CCCC1CCC(=O)c1ccc(Cl)cc1` (stereo not shown) [Compound 6], the “Disappearance time” value turned out to be 1.1 ± 0.3 min in data set [1] (2 mg/kg), 1.9 ± 0.3 min in data set [1] (4 mg/kg) and 3.0 ± 0.3 min in data set [1] (8 mg/kg). Moreover, the ED (3 min disappearance of contractions) in data set [1] (Rattus norvegicus) amounted to 8 mg/kg.
As for `CC(CN1CCOCC1)C(=O)c1cccc(F)c1` (stereo not shown) [Compound 7], the entries for the “Disappearance time” value in data set [1] (2 mg/kg) and in data set [1] (8 mg/kg) were 1.8 ± 1.0 min and 6.8 ± 2.1 min, respectively. Also, the ED (3 min disappearance of contractions) in data set [1] (Rattus norvegicus) came out at 2.8 mg/kg.
Turning to `CC(CN1CCCC1)C(=O)c1ccc(CF)cc1` (stereo not shown) [Compound 8], the “Disappearance time” value in data set [1] (2 mg/kg) is recorded as 1.5 ± 4.79 min; in data set [1] (4 mg/kg), 2.4 ± 2.0 min; in data set [1] (8 mg/kg), 5.2 ± 2.5 min.
As to `CC(CN1CCCCCC1)C(=O)c1ccc(F)cc1` (stereo not shown) [Compound 9], the entries for the “Disappearance time” value in data set [1] (1 mg/kg), in data set [1] (2 mg/kg) and in data set [1] (4 mg/kg) were 0.5 ± 0.1 min, 1.2 ± 0.8 min and 5.5 ± 2.7 min, respectively. Further, the ED (3 min disappearance of contractions) in data set [1] (Rattus norvegicus) came out at 2.7 mg/kg.
Take `Cc1c(-c2ccccc2)oc2c(C(=O)OCCN3CCCCC3)cccc2c1=O` [flavoxate-HCl, reference compound]: the “Disappearance time” value in data set [1] (1 mg/kg) was found to be 1.1 ± 1.1 min; in data set [1] (3 mg/kg), 7.5 ± 2.7 min. Moreover, the ED (3 min disappearance of contractions) in data set [1] (Rattus norvegicus) was 1.4 mg/kg. In data set [1] (Rattus norvegicus, intraduodenal administration, read-out: ED50 (dose which inhibited 50 percent of the sum total of amplitude of bladder contractions during five minutes)), the ED50 stood at 270 mg/kg. Further, the “Delayed time of micturition” value in data set [2] (1 mg/kg) worked out at 0.6 ± 35.4 s; in data set [2] (3 mg/kg, * p < 0.05 vs last time to micturition), 30.6 ± 44.4 s. In addition, the “Delayed time to micturition” value in data set [3] (1 mg/kg, i.v., mean ± S.E., saline 6.6 ± 10.2) was 12.0 ± 10.8 s; in data set [3] (4 mg/kg, i.v., mean ± S.E., saline 6.6 ± 10.2), 39.0 ± 43.8 s; in data set [3] (8 mg/kg, i.v., mean ± S.E., saline 6.6 ± 10.2), -16.8 ± 36.6 s; in data set [3] (30.0 mg/kg, i.d., after 30 min., water 22.2 ± 16.2), -45.6 ± 37.8 s. For the same compound, in data set [3] (intravenous and intraduodenal), the “delayed effect on the cystometrogram (in words)” value is “not recognized to produce delayed effects”. Besides, in the data set “in vivo”, the LD50 at 168 h came out at 1330 mg/kg.
